# In ChEMBL document CHEMBL5523692, “Discovery of novel biaryl benzoxazepinones as dual-mode receptor-interacting protein kinase-1 (RIPK1) inhibitors” (Bioorg Med Chem, 2024):
# Calls of active or inactive are those of the source. The calls are words filed in the database; no cut-off is given here.
# Biological target: T1, Receptor-interacting serine/threonine-protein kinase 1 (Homo sapiens) (UniProt Q13546)
# T1 sequence (whole entry): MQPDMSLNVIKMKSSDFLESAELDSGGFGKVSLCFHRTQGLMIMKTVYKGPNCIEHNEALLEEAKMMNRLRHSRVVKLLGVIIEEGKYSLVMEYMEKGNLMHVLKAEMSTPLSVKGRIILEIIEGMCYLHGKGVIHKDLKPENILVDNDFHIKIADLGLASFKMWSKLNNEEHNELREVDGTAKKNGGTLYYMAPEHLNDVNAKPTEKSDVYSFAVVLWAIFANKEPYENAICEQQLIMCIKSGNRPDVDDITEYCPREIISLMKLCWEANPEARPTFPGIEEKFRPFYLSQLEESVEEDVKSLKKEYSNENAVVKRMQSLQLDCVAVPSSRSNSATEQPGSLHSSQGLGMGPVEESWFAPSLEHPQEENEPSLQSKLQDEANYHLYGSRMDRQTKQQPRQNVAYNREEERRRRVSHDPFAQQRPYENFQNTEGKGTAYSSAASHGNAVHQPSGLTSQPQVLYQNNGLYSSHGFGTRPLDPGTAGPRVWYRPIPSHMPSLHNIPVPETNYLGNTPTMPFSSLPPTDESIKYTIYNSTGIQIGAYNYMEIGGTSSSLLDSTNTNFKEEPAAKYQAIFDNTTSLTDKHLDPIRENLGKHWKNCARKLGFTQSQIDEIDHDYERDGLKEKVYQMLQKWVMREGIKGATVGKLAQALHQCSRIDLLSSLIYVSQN
# Assay: Inhibition of RIPK1 in human HT-29 cells assessed as decrease in MLKL phosphorylation preincubated for 6 hrs followed by TSZ stimulation by Western blot analysis relative to control
# Type: cell-based
# Settings: dose 1-10 nM
row,Structure (SMILES),inhibition
1,CN1C(=O)[C@@H](NC(=O)c2n[nH]c(Cc3ccccc3)n2)COc2ccc(-c3ccc(C#N)cc3)cc21,Dose-Dependent Effect

# Tested on: HT-29
# Assay: Anti-necroptic activity against human HT-29 cells assessed as cell viability upto 10 uM pretreated with compound followed by TNF-alpha/Smac mimetic stimulation for 24 hrs by Cell Titer Glo assay
# Type: functional, cell-based
# Settings: not given
row,Structure (SMILES),Activity
1,CN1C(=O)[C@@H](NC(=O)c2n[nH]c(Cc3ccccc3)n2)COc2ccc(-c3ccc(C#N)cc3)cc21,inactive

# Tested on: HT-29
# Assay: Anti-necroptic activity against human HT-29 cells assessed as cell viability upto 10 uM pretreated with compound followed by TNF-alpha/Cycloheximide stimulation for 36 hrs by Cell Titer Glo assay
# Type: functional, cell-based
# Settings: not given
row,Structure (SMILES),Activity
1,CN1C(=O)[C@@H](NC(=O)c2n[nH]c(Cc3ccccc3)n2)COc2ccc(-c3ccc(C#N)cc3)cc21,inactive

# Tested on: HT-29
# Assay: Anti-necroptic activity against human HT-29 cells assessed as cell viability pretreated with compound followed by TNF-alpha/Smac mimetic/Z-VAD-FMK stimulation for 16 hrs by Cell Titer Glo assay
# Type: functional, cell-based
# Settings: not given
row,Structure (SMILES),EC50
1,Cc1cccc(C)c1-c1ccc2c(c1)N(C)C(=O)[C@@H](NC(=O)c1n[nH]c(Cc3ccccc3)n1)CO2,> 100 nM
2,CN1C(=O)[C@@H](NC(=O)c2n[nH]c(Cc3ccccc3)n2)COc2ccc(-c3ccncc3)cc21,3.3 nM
3,CN1C(=O)[C@@H](NC(=O)c2n[nH]c(Cc3ccccc3)n2)COc2ccc(-c3ccc(O)cc3)cc21,29.9 nM
4,CN1C(=O)[C@@H](NC(=O)c2n[nH]c(Cc3ccccc3)n2)COc2ccc(-c3cccc(C#N)c3)cc21,8.3 nM
5,COc1cccc(-c2ccc3c(c2)N(C)C(=O)[C@@H](NC(=O)c2n[nH]c(Cc4ccccc4)n2)CO3)c1,3 nM
6,CN1C(=O)[C@@H](NC(=O)c2n[nH]c(Cc3ccccc3)n2)COc2ccc(-c3ccc(F)cc3)cc21,9.8 nM
7,CN1C(=O)[C@@H](NC(=O)c2n[nH]c(Cc3ccccc3)n2)COc2ccc(-c3cccc(Cl)c3)cc21,56.8 nM
8,CN1C(=O)[C@@H](NC(=O)c2n[nH]c(Cc3ccccc3)n2)COc2ccc(-c3ccc(Cl)cc3)cc21,12.5 nM
9,COc1ccc(-c2ccc3c(c2)N(C)C(=O)[C@@H](NC(=O)c2n[nH]c(Cc4ccccc4)n2)CO3)cc1,3.5 nM
10,CN1C(=O)[C@@H](NC(=O)c2n[nH]c(Cc3ccccc3)n2)COc2ccc(-c3cccc(-c4ccccc4)c3)cc21,27.3 nM
11,CN1C(=O)[C@@H](NC(=O)c2n[nH]c(Cc3ccccc3)n2)COc2ccc(-c3ccc(C#N)cc3)cc21,1.7 nM
12,CN1C(=O)[C@@H](NC(=O)c2n[nH]c(Cc3ccccc3)n2)COc2ccc(-c3cccc(F)c3)cc21,8.8 nM
13,CN1C(=O)[C@@H](NC(=O)c2n[nH]c(Cc3ccccc3)n2)COc2ccc(-c3ccc(-c4ccccc4)cc3)cc21,32.9 nM
14,COc1ccccc1-c1ccc2c(c1)N(C)C(=O)[C@@H](NC(=O)c1n[nH]c(Cc3ccccc3)n1)CO2,10 nM

# Biological target: T1, Receptor-interacting serine/threonine-protein kinase 1 (Homo sapiens)
# Assay: Inhibition of RIPK1 in human HT-29 cells assessed as decrease in RIPK3 phosphorylation at 10 nM preincubated for 6 hrs followed by TSZ stimulation by Western blot analysis relative to control
# Type: cell-based
# Settings: not given
row,Structure (SMILES),inhibition
1,CN1C(=O)[C@@H](NC(=O)c2n[nH]c(Cc3ccccc3)n2)COc2ccc(-c3ccc(C#N)cc3)cc21,100%

# Tested on: Mus musculus
# Assay: (§1) Anti-necroptic activity in TNF-alpha/Z-VAD-FMK-induced SIRS C57BL/6J mouse model assessed as survival rate at 10 mg/kg, po pre-administered via gavage for 1 hr followed by […] of Z-VAD-FMK stimulation for 15 mins and subsequent TNF-alpha stimulation for 45 mins and re-current […] of Z-VAD-FMK stimulation measured after 4 hrs post- TNF-alpha stimulation relative to control
# Type: functional
# Settings: 6 h, time 360 min
row,Structure (SMILES),survival at 10 mg/kg
1,CN1C(=O)[C@@H](NC(=O)c2n[nH]c(Cc3ccccc3)n2)COc2ccc(-c3ccc(C#N)cc3)cc21,100%

# Biological target: T1, Receptor-interacting serine/threonine-protein kinase 1 (Homo sapiens)
# Assay: Inhibition of RIPK1 phosphorylation in human HT-29 cells preincubated for 6 hrs followed by TSZ stimulation by Western blot analysis
# Type: cell-based
# Settings: dose 1-10 nM
row,Structure (SMILES),inhibition
1,CN1C(=O)[C@@H](NC(=O)c2n[nH]c(Cc3ccccc3)n2)COc2ccc(-c3ccc(C#N)cc3)cc21,Dose-Dependent Effect

# Biological target: T1, Receptor-interacting serine/threonine-protein kinase 1 (Homo sapiens)
# Assay: Inhibition of RIPK1 phosphorylation in human HT-29 cells at 10 nM preincubated for 6 hrs followed by TSZ stimulation by Western blot analysis relative to control
# Type: cell-based
# Settings: not given
row,Structure (SMILES),inhibition
1,CN1C(=O)[C@@H](NC(=O)c2n[nH]c(Cc3ccccc3)n2)COc2ccc(-c3ccc(C#N)cc3)cc21,100%

# Tested on: HT-29
# Assay: Anti-necroptic activity against human HT-29 cells assessed as cell viability pretreated with compound followed by TNF-alpha/Cycloheximide/Z-VAD-FMK stimulation for 16 hrs by Cell Titer Glo assay
# Type: functional, cell-based
# Settings: dose 0.39-50 nM
row,Structure (SMILES),Activity
1,CN1C(=O)[C@@H](NC(=O)c2n[nH]c(Cc3ccccc3)n2)COc2ccc(-c3ccc(C#N)cc3)cc21,Dose-Dependent Effect

# Tested on: not listed separately
# Assay: Cytotoxicity against human HT-29 cells by Cell Titer Glo assay
# Type: toxicity, cell-based
# Settings: not given
row,Structure (SMILES),CC50
1,Cc1cccc(C)c1-c1ccc2c(c1)N(C)C(=O)[C@@H](NC(=O)c1n[nH]c(Cc3ccccc3)n1)CO2,> 100000 nM
2,CN1C(=O)[C@@H](NC(=O)c2n[nH]c(Cc3ccccc3)n2)COc2ccc(-c3ccncc3)cc21,> 100000 nM
3,CN1C(=O)[C@@H](NC(=O)c2n[nH]c(Cc3ccccc3)n2)COc2ccc(-c3ccc(O)cc3)cc21,> 100000 nM
4,CN1C(=O)[C@@H](NC(=O)c2n[nH]c(Cc3ccccc3)n2)COc2ccc(-c3cccc(C#N)c3)cc21,> 100000 nM
5,COc1cccc(-c2ccc3c(c2)N(C)C(=O)[C@@H](NC(=O)c2n[nH]c(Cc4ccccc4)n2)CO3)c1,> 100000 nM
6,CN1C(=O)[C@@H](NC(=O)c2n[nH]c(Cc3ccccc3)n2)COc2ccc(-c3ccc(F)cc3)cc21,> 100000 nM
7,CN1C(=O)[C@@H](NC(=O)c2n[nH]c(Cc3ccccc3)n2)COc2ccc(-c3cccc(Cl)c3)cc21,> 100000 nM
8,CN1C(=O)[C@@H](NC(=O)c2n[nH]c(Cc3ccccc3)n2)COc2ccc(-c3ccc(Cl)cc3)cc21,> 100000 nM
9,COc1ccc(-c2ccc3c(c2)N(C)C(=O)[C@@H](NC(=O)c2n[nH]c(Cc4ccccc4)n2)CO3)cc1,> 100000 nM
10,CN1C(=O)[C@@H](NC(=O)c2n[nH]c(Cc3ccccc3)n2)COc2ccc(-c3cccc(-c4ccccc4)c3)cc21,> 100000 nM
11,CN1C(=O)[C@@H](NC(=O)c2n[nH]c(Cc3ccccc3)n2)COc2ccc(-c3ccc(C#N)cc3)cc21,> 100000 nM
12,CN1C(=O)[C@@H](NC(=O)c2n[nH]c(Cc3ccccc3)n2)COc2ccc(-c3cccc(F)c3)cc21,> 100000 nM
13,CN1C(=O)[C@@H](NC(=O)c2n[nH]c(Cc3ccccc3)n2)COc2ccc(-c3ccc(-c4ccccc4)cc3)cc21,> 100000 nM
14,COc1ccccc1-c1ccc2c(c1)N(C)C(=O)[C@@H](NC(=O)c1n[nH]c(Cc3ccccc3)n1)CO2,> 100000 nM

# Tested on: L-292
# Assay: Anti-necroptic activity against mouse […] cells assessed as cell viability pretreated with compound followed by TNF-alpha/Z-VAD-FMK stimulation for 12 hrs by Cell Titer Glo assay
# Type: functional, cell-based
# Settings: dose 0.078-10 µM
row,Structure (SMILES),Activity
1,CN1C(=O)[C@@H](NC(=O)c2n[nH]c(Cc3ccccc3)n2)COc2ccc(-c3ccc(C#N)cc3)cc21,Dose-Dependent Effect

# Biological target: T1, Receptor-interacting serine/threonine-protein kinase 1 (Homo sapiens)
# Assay: Inhibition of RIPK1 in human HT-29 cells assessed as decrease in RIPK3 phosphorylation preincubated for 6 hrs followed by TSZ stimulation by Western blot analysis
# Type: cell-based
# Settings: dose 1-10 nM
row,Structure (SMILES),inhibition
1,CN1C(=O)[C@@H](NC(=O)c2n[nH]c(Cc3ccccc3)n2)COc2ccc(-c3ccc(C#N)cc3)cc21,Dose-Dependent Effect

# Biological target: T1, Receptor-interacting serine/threonine-protein kinase 1 (Homo sapiens)
# Assay: Inhibition of RIPK1 in human HT-29 cells assessed as decrease in MLKL phosphorylation at 10 nM preincubated for 6 hrs followed by TSZ stimulation by Western blot analysis relative to control
# Type: cell-based
# Settings: not given
row,Structure (SMILES),inhibition
1,CN1C(=O)[C@@H](NC(=O)c2n[nH]c(Cc3ccccc3)n2)COc2ccc(-c3ccc(C#N)cc3)cc21,100%

# Biological target: T1, Receptor-interacting serine/threonine-protein kinase 1 (Homo sapiens)
# Assay: Inhibition of RIPK1 phosphorylation in human HT-29 cells assessed as decrease in necrosomes development at 10 nM incubated for 6 hrs by Western blot analysis
# Type: cell-based
# Settings: not given
row,Structure (SMILES),inhibition
1,CN1C(=O)[C@@H](NC(=O)c2n[nH]c(Cc3ccccc3)n2)COc2ccc(-c3ccc(C#N)cc3)cc21,Active

# Tested on: HT-29
# Assay: Anti-necroptic activity against human HT-29 cells assessed as cell viability pretreated with compound followed by TNF-alpha/Smac mimetic/Z-VAD-FMK stimulation for 12 hrs by Cell Titer Glo assay
# Type: functional, cell-based
# Settings: dose 0.39-50 nM
row,Structure (SMILES),Activity
1,CN1C(=O)[C@@H](NC(=O)c2n[nH]c(Cc3ccccc3)n2)COc2ccc(-c3ccc(C#N)cc3)cc21,Dose-Dependent Effect

# Tested on: Mus musculus
# Assay: (§2) Anti-necroptic activity in TNF-alpha/Z-VAD-FMK-induced SIRS C57BL/6J mouse model assessed as decrease in serum IL-6 level at 2.5 to 10 mg/kg, po pre-administered via gavage for 1 hr followed by […] of Z-VAD-FMK stimulation for 15 mins and subsequent TNF-alpha stimulation for 45 mins and re-current […] of Z-VAD-FMK stimulation measured after 4 hrs post- TNF-alpha stimulation by ELISA
# Type: functional, organism-based
# Settings: dose 2.5-10 mg/kg, time 360.0 min
row,Structure (SMILES),Activity
1,CN1C(=O)[C@@H](NC(=O)c2n[nH]c(Cc3ccccc3)n2)COc2ccc(-c3ccc(C#N)cc3)cc21,Active

# Tested on: Mus musculus
# Assay: as §2, with “IL-1beta” for “IL-6”
# Type: functional, organism-based
# Settings: dose 2.5-10 mg/kg, time 360.0 min
row,Structure (SMILES),Activity
1,CN1C(=O)[C@@H](NC(=O)c2n[nH]c(Cc3ccccc3)n2)COc2ccc(-c3ccc(C#N)cc3)cc21,Active

# Tested on: Mus musculus
# Assay: as §2, with “in hypothermia” for “in serum IL-6 level”, “after 2 to 3” for “after 4”, “stimulation” for “stimulation by ELISA”
# Type: functional, organism-based
# Settings: dose 2.5-10 mg/kg, time 240-300 min
row,Structure (SMILES),Activity
1,CN1C(=O)[C@@H](NC(=O)c2n[nH]c(Cc3ccccc3)n2)COc2ccc(-c3ccc(C#N)cc3)cc21,Active

# Tested on: Mus musculus
# Assay: as §1, with “2.5” for “10”
# Type: functional
# Settings: 6 h, time 360 min
row,Structure (SMILES),survival at 2.5 mg/kg
1,CN1C(=O)[C@@H](NC(=O)c2n[nH]c(Cc3ccccc3)n2)COc2ccc(-c3ccc(C#N)cc3)cc21,66%

# Tested on: Mus musculus
# Assay: as §1, with “5” for “10”
# Type: functional
# Settings: 6 h, time 360 min
row,Structure (SMILES),survival at 5 mg/kg
1,CN1C(=O)[C@@H](NC(=O)c2n[nH]c(Cc3ccccc3)n2)COc2ccc(-c3ccc(C#N)cc3)cc21,91%
